Results published in patent US20150065436A1, “INHIBITING INTERACTION BETWEEN HIF-1ALPHA AND p300/CBP WITH HYDROGEN BOND SURROGATE-BASED HELICES” (UNIVERSITY OF SOUTHERN CALIFORNIA, priority 2013, published 2015).

Columns and labels:
LOX = assay: Real-time qRT-PCR of LOX expression in hypoxic HeLa cells; assay type: cell-based, human; details: hypoxia
[1] = tested on: hypoxia-inducible promoter activity in MDA-MB-231-HRE-Luc cells; assay: Luciferase-based HRE promoter activity assay; details: 50 μM, hypoxia by GasPak EZ pouch
Procedure: MDA-MB-231-HRE-Luc cells were grown in high glucose DMEM supplemented with 10% fetal bovine serum and 0.4 g/L geneticin (RPI). Hypoxia was mimicked with desferrioxamine mesylate (DFO, Sigma) at a concentration of 300 μM or by GasPak EZ pouch (BD Biosciences). Cell growth and morphology were monitored by phase-contrast microscopy.
MDA-MB-231-HRE-Luc cells were plated in 24-well plates (BD Falcon) at a seeding density of 35,000 cells/mL. Cells were allowed to adhere and form a monolayer before adding the compounds (˜70% confluence). […] All samples contained a final concentration of 0.1% DMSO; vehicle samples were treated with cell culture media containing 0.1% DMSO. Cells were incubated for 6 hours at 37° C. and 5% CO2 and then hypoxia was induced by placing the cells into GasPak EZ pouch for another 18 hours. The lysates were isolated by using cell culture lysis reagent (Promega). Prior to collecting cell lysate, halt protease inhibitor cocktail (Thermo Scientific) was added to the cell culture lysis reagent in order to ensure the stability of proteins. Cell lysates were collected into low-adhesion pre-chilled Eppendorf tubes (USA Scientific) and centrifuged at 13,000 rpm for 5 minutes at 4° C. Supernatant was collected into another set of pre-chilled Eppendorf tubes and the pellet was discarded. Luciferase assay reagent (100 μL, Promega) was added to 20 μL of cell lysate and luminescence intensity was measured by Turner TD-20e luminometer. The results were normalized to total protein concentration determined by BCA assay. Briefly, 10 μL of cell lysate was added to 200 μL of BCA reagent. Absorbance was measured at 562 nm using a BioTek Synergy 2 microplate reader and normalized to BSA solutions at a concentration range of 125 μg/mL to 2000 μg/mL as standards.

VEGFA = assay: Real-time qRT-PCR of VEGFA expression in hypoxic HeLa cells; assay type: cell-based, human; details: for reduction of VEGF expression levels: DFO hypoxia
p300-CH1 = biological target: T1, p300-CH1 (Homo sapiens, UniProt Q09472); assay: Tryptophan fluorescence binding assay; details: for Kd: 15N-labeled p300 CH1 domain, Trp403 fluorescence, read-out: dissociation constant, Kd
T1 construct: human p300 CH1 domain (amino acid residues 323-423); GST (cleaved yes); made in house; host or cells: E. coli BL21 (DE3)
T1 sequence (Q09472 323-423): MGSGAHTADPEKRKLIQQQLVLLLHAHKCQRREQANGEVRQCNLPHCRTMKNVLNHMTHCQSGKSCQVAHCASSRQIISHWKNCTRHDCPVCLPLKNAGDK
From the text: The DNA sequence of human p300 CH1 domain ([…]) was designed as an insert and subcloned into a pUC57 plasmid by Genscript, Inc. After transformation of the plasmid in JM109 bacteria (Promega), the gene sequence was subcloned into BamHI and EcoRI restriction sites of pGEX-4T-2 expression vector (Amersham). The pGEX 4T-2-p300 fusion vector was transformed into BL21 (DE3)-competent E. coli (Novagen) in M9 minimal media with ^15NH4Cl as the main nitrogen source. Protein production was induced with 1 mM IPTG at O.D. 600 of 1 for 16 hours at 15° C. Production of the desired p300-CH1-GST fusion product was verified by SDS-PAGE. Bacteria were harvested and resuspended in the lysis buffer with 20 mM Phosphate buffer (Research Products International, Corp.), 100 μM DTT (Fisher), 100 μM ZnSO4 (Sigma), 0.5% TritonX 100 (Sigma), […] Pepstatin A (Research Products International, Corp.), […] Leupeptin A (Research Products International, Corp.), 500 μM PMSF (Sigma), and 0.5% glycerol at pH 8.0. Pellets were lysed by sonication and centrifuged at 4° C., 20,000 rpm, for 20 minutes. Fusion protein was collected from the bacterial supernatant and purified by affinity chromatography using glutathione Sepharose 4B beads (Amersham) prepared according to the manufacturer's directions. GST-tag was cleaved by thrombin and protein was eluted from resin. […] Spectra were recorded on a QuantaMaster 40 spectrofluorometer (Photon Technology International) in a 10 mm quartz fluorometer cell at 25° C. with 4 nm excitation and 4 nm emission slit widths from 200 to 400 nm at intervals of 1 nm/s. Samples were excited at 295 nm and fluorescence emission was measured from 200-400 nm and recorded at 335 nm. Peptide stock solutions were prepared in DMSO. Aliquots containing 1 μL DMSO stocks were added to 400 μL of 1 μM p300-CH1 in 50 mM Tris and 100 mM NaCl (pH 8.0). After each addition, the sample was allowed to equilibrate for 5 minutes before UV analysis. Background absorbance and sample dilution effects were corrected by titrating DMSO into p300-CH1 in an analogous manner. Final fluorescence is reported as the absolute value of [(F1-F0)/F1]*100, where F1 is the final fluorescence upon titration and F0 is the fluorescence of the blank DMSO titration. EC50 values for each peptide were determined by fitting the experimental data to a sigmoidal dose-response nonlinear regression model on GraphPad Prism 5.0, and the dissociation constants, KD, were obtained from equation (1) […] The affinity of peptides for the ^15N-labeled p300 CH1 domain was evaluated using tryptophan fluorescence spectroscopy. […] The binding affinity of HIF-1αC-TAD to CH1 in this assay is consistent with that obtained from a fluorescence polarization assay using fluorescein-labeled HIF-1αC-TAD (FIG. 11 and FIG. 12) and those using isothermal titration microcalorimetry.

SLC2A1 (GLUT1) = assay: Real-time qRT-PCR of SLC2A1 (GLUT1) expression in hypoxic HeLa cells; assay type: cell-based, human; details: hypoxia, dose-dependent (10 and 50 μM tested)
HeLa cells = assay: MTT cell viability assay; assay type: cell-based, human; details: 1 to 100 μM, 24 hours
Procedure: HeLa cells were plated in a 96-well plate at a density of 6,000 cells/well and allowed to form a monolayer before adding the compounds. […] After 3 hours of incubation, the media was removed and purple crystals were dissolved in 100 μL of dimethyl sulfoxide (DMSO). The absorbance was measured at 570 nm with a correction at 690 nm in order to quantify the amount of formed purple formazan. All experiments were performed in quadruplicate.
HBS 1 is an efficient modulator of contacts between HIF-1α and p300/CBP. Known inhibitors of this interaction typically function allosterically, by inducing unfolding of p300/CBP through abstraction of zinc ions. This could lead to non-specific abstraction of metal ions from other biomolecules (Block et al., “Direct Inhibition of Hypoxia-Inducible Transcription Factor Complex With Designed Dimeric Epidithiodiketopiperazine,” J. Am. Chem. Soc. 131(50):18078-88 (2009), which is hereby incorporated by reference in its entirety). It was predicted that the HIF-1α mimetics should manifest their function in a more specific manner, and should not be generally cytotoxic. Cell viability assays confirm this hypothesis. […] Thus, HBS 2 may not just be a straightforward lower affinity analog of HBS 1 as designed.

[2] = biological target: T2, p300-CH1/Flu-HIF C-TAD complex (Homo sapiens, UniProt Q09472); assay: Fluorescence polarization competitive inhibition assay; assay type: binding
T2 construct: human p300 CH1 domain (amino acid residues 323-423); GST (cleaved yes); made in house; host or cells: E. coli BL21 (DE3) for p300-CH1
T2 sequence (Q09472 323-423, one chain of several): as the sequence (Q09472 323-423) above

[3] = tested on: 786-O renal cell carcinoma tumors
Procedure: Mice (n=6) were inoculated with 786-O cells (2×10^6 cells) into the right flank and allowed to grow tumors for 21 days. […] In parallel, a control group (n=6) received injections of PBS. Tumor sizes were measured on Days 2, 3, 4, 6, 8, 11, 13, 16, 20, 25, 28, and 33. […] At a conclusion of the study, mice were injected intraperitoneally with the near-infrared dye IR-783 contrast agent and the tumors were imaged using Xenogen IVIS 200 small animal imager.
The CrTac:NCr-Foxn1^nu mouse (Taconic, Inc.) was used for efficacy studies. […] Measurable tumors (˜100 mm^3) grew in as little as 2-3 weeks after the inoculation of 2×10^6 cells into the flank of the mice. […] Tumor sizes were measured in accordance with literature recommendations.

[4] = at conclusion of study, IR-783 imaging

SMILES	activity on LOX expression (LOX; concentration not given)	reduction of luciferase expression [1]	reduction of VEGF expression levels (VEGFA; 50 μM)	Kd (p300-CH1) [µM]	binding affinity relative to HBS 1 (p300-CH1; CH1 domain, compared with HBS 1)	inhibition of SLC2A1 expression (SLC2A1 (GLUT1))	cytotoxicity (HeLa cells)	inhibition of the complex on titration ([2]; preformed p300-CH1/Flu-HIF C-TAD complex)	downregulation of LOX expression (LOX; 10 μM (first of two doses)) [%]	downregulation of LOX expression (LOX; 50 μM (second of two doses)) [%]	reduction of VEGF expression levels (VEGFA; 10 μM) [%]	inhibition of VEGF expression under two hypoxia mimetic conditions (VEGFA; DFO and prolonged incubation in an anaerobic pouch)	median tumor volume reduction compared to control group ([3]; 13 mg/kg parenterally, 5 injections, 786-O xenograft) [%]	median tumor volume ([3]; 13 mg/kg, 786-O xenograft, volumes measured throughout the study) [mm^3]	NIR signal (IR-783) from the main tumor [3, 4]	NIR signal (IR-783) in lymph nodes, brain or other organs (metastasis) [3, 4]	increase in binding affinity by stabilization of the peptide conformation (p300-CH1; HBS 1 versus unconstrained peptide 3) [fold]	Ki [2] [µM]
CC(C)C[C@@H]1NC(=O)[C@H](CCC(=O)O)NC(=O)CCC=CCN([C@@H](C)C(=O)N[C@@H](CCCNC(=N)N)C(=O)N[C@@H](C)C(=O)N[C@@H](C)C(=O)N[C@@H](CC(=O)O)C(=O)N[C@@H](CCC(N)=O)C(N)=O)C1=O [HBS 2, XELA*RAADQ-NH2]	no activity	less effective	10%	2.82 ± 0.14	four-fold weaker	no activity	higher level of cytotoxicity than HBS 1	did not lead to reproducible inhibition										
CC(C)C[C@H](NC(=O)[C@H](C)NC(=O)[C@H](CCCNC(=N)N)NC(=O)[C@H](C)N1CC=CCCC(=O)N[C@@H](CCC(=O)O)C(=O)N[C@@H](CC(C)C)C1=O)C(=O)N[C@@H](CC(=O)O)C(=O)N[C@@H](CCC(N)=O)C(N)=O [HBS 1, XELA*RALDQ-NH2]		25%	greater than 60%	0.69 ± 0.025		50-60%	essentially non-cytotoxic		55	70	50	dose-dependent inhibition	53	138	significantly reduced signal	no detectable NIR signal	9	3.5 ± 1.2
